Data published in US20250250559A1, “METHOD TO ANALYZE AND OPTIMIZE GENE EDITING MODULES AND DELIVERY APPROACHES” (Hoffmann-La Roche Inc., priority 2016, published 2025).
Several values for one entry are separate records, joined by “and”; a condition that tells them apart may be missing. Identical values can stand only once.

How the values were obtained:
[1] = test system: DPH2 gene; experiment: PM resistant colony count after DPH2 gene editing; assay type: cell-based, human; settings: DPH2 assay (integr. vs. k.o.); for # of PM resistant colonies (40,000 seeded cells): MCF7, individual samples A-D
Method: MCF7 cells (Brooks, et al. 1973) were originally obtained from ATCC (subsequently propagated in an in-house cell bank) and maintained in RPMI […] medium supplemented with 10% FCS, 2 mM L-Glutamine and penicillin/streptomycin at 37° C. and 85% humidity. For transfection of plasmids harboring gene-editing modules, 3,000,000 cells were seeded in a 10 cm diameter culture dish and cultivated at 37° C. and humidified 5% CO2. 24 h after seeding, cells were transfected with 20 μg total DNA using JetPEI (Polyplus) according to the manufacturer's protocol but with an N/P ratio of 6:1. Transfection efficiency was determined after 24 h by flow cytometry (FACS Calibur, BD biosciences) of cells that were transfected with a modified eGFP expression plasmid (Zhang, et al. 1996).
Plasmids encoding CRISPR/Cas9 gene-editing entities (i.e. knock-out and integration systems) against Dph1 (gRNA target sequence: […] (SEQ ID NO: 01) derived from RefSeq: NM_001383) and Dph2 (gRNA target sequence: […] (SEQ ID NO: 02) derived from RefSeq: NM_001039589, NM_001384), and scrambled control (gRNA sequence: […] (SEQ ID NO: 03)) were obtained from OriGene. This system comprises one plasmid expressing a ˜100 nt gRNA under control of a U6 promoter as well as Cas9 nuclease under control of a CMV promoter and a Donor plasmid with a promoter-less GFP/PM expression cassette flanked by homologous arms to the target gene (Dph1 or Dph2). Additional Dph1 gRNA sequence variants of different sizes (OriGene) […]
MCF7 cells which have all chromosomal copies of DPH1 or DPH2 inactivated are resistant to diphtheria toxin (Stahl, et al. 2015). Thus, occurrence and frequency of toxin resistant cells/colonies upon CRISPR/Cas inflicted gene inactivation provides a measure for efficiency of inactivation of all gene copies. Therefore, MCF/cells were transfected as described in Example 1 with (i) a GFP expression plasmid as transfection control, (ii) the CRISPR/Cas9 Dph1 or Dph2 knock-out/integration system and (iii) knock-out/integration entities containing a scrambled gRNA to determine Cas9 independent integration frequencies. After determination of transfection efficiency, cells were seeded in 6-well plates. For quantification of homozygous knock-out events by DT 20000 cells were seeded and for quantification of integration events by PM or both events 40000 cells were seeded. RPMI medium was exchanged by RPMI medium containing DT or PM or both toxins 3 days after cell seeding. Exchange of medium was repeated every 2-3 days until all dead cells were removed from the plates and actively growing colonies could be detected via microscopic inspection. Thereafter (between day 12 and day 14 after start of toxin exposure), cells were washed 3 times with PBS and subsequently stained with ice cold methylene blue (0.2% in 50% EtOH). Methylene blue solution was subsequently removed and the plates were carefully washed under running water. Finally, cell colonies were counted under the microscope with a 5 mm grid foil.
CRISPR/Cas module for targeted integration contains a puromycin (PM) resistance gene expression cassette without promoter to avoid transient expression. Thus, detection of integration of recombinant sequences into the genome was detected by determining sensitivity of cells towards PM. A concentration of […] PM (which quantitatively eliminates wildtype MCF7 cells) was applied to select MCF7 cells with stably integrated expression cassettes. PM-resistant colonies selected with the same procedure as described above for the DT selection and visualized and quantified (between 12 and 14 days after start of selection) in the same manner as described above for toxin resistant colonies. Number of PM resistant colonies obtained with non-target guide sequences (scrambled gRNA, FIG. 1) reflect the nonspecific integration background. […]

[2] = test system: DPH1 gene; experiment: HRM-PCR on single cells followed by DT sensitivity assay; assay type: cell-based, human; settings: FIG. 5B
Method: Cells which have only one allele of dph1 or dph2 modified are not toxin resistant. To identify and quantify those events, high resolution melting (HRM) PCR was applied in a similar manner as described by Stahl et al (Stahl, et al. 2015): 24 h after transfection, single cells were deposited in 96-well plates by FACS (FACSAria, BD biosciences) and grown until confluency. Cells were washed with PBS and lysed by addition of 40 μL cell lysis buffer (Roche) per well. After 15 mins incubation at RT on a plate shaker (Titramax 1000, Heidolph) at 750 rpm, the cell lysate was 1:5 diluted with PCR grade H2O. 5 μL cell lysate was mixed with a High resolution melting (HRM) master mix (Roche) and with primer spanning the gRNA target sequence. PCR and HRM were performed in an LC480 II (Roche) according the manufacturer's protocol. Clones with edited target genes were identified by their altered melting curve compared to MCF7-WT cells.
Therefore, such clones were expanded (without toxin or Puromycin selection) and subjected to cell viability analyses to discriminate between heterozygous (toxin sensitive) and homozygous (resistant) knockout cells. […] Metabolic activity of surviving cells was assessed by a CellTiterGlo® Luminescent Viability Assay (Promega) performed according to the manufacturer's specifications.

Substance	# of PM resistant colonies (40,000 seeded cells) (unheaded second sub-column: mean) ([1]; MCF7)	# of PM resistant colonies (40,000 seeded cells) [1]	# of PM resistant colonies (40,000 seeded cells) ([1]; listed as 20 mer scRNA)	mono-allelic gene inactivation (toxin sensitive, HRM confirmed) versus inactivation of both alleles (DTr) [2]
20 mer SpCas9 scRNA: Scrambled control gRNA GCACTACCAGAGCTAACTCA (SEQ ID NO: 03) with SpCas9 and donor plasmid [reference compound]	0.5	2 and 0 (3×)	2 and 0 (3×)	–
20 mer SpCas9 DPH1 gRNA: Plasmids encoding SpCas9 and Dph1 gRNA (target CAGGGCGGCCGAGACGGCCC, SEQ ID NO: 01) plus PAC donor plasmid, OriGene	–	–	–	twice as frequent
